# From PubChem BioAssay AID200 (DTP/NCI, 2004)
# Where “and” joins values, the source holds several entries; their conditions need not be identical. Equal entries are not always repeated. Inconclusive results and toxic doses are left out. Where a SMILES comes first, the peptide text is derived from it.
# Tested on: B6C3F1 mice, B16 melanoma ip, median survival T/C
# Assay: NCI In Vivo Anticancer Drug Screen. Data for tumor model B16 Melanoma (intraperitoneal) in B6C3F1 mice
# Details: endpoint: median survival time, higher = longer survival
# Summary of the method: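 Transplantable tumor in mice; treated vs vehicle control groups; survival or tumor size measured; value = T/C ratio.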
# [1] = dose: 10.0 mg/kg/injection, schedule: Q01DX009 (ip), vehicle: saline
# [2] = dose: 20.0 mg/kg/injection, schedule: Q01DX009 (ip), vehicle: saline
# [3] = dose: 25.0 mg/kg/injection, schedule: Q01DX009 (ip), vehicle: Klucel (hydroxypropylcellulose) (HPC)
# [4] = dose: 50.0 mg/kg/injection, schedule: Q01DX009 (ip), vehicle: Klucel (hydroxypropylcellulose) (HPC)
# [5] = dose: 100.0 mg/kg/injection, schedule: Q01DX009 (ip), vehicle: Klucel (hydroxypropylcellulose) (HPC)
# [6] = dose: 0.5 mg/kg/injection, schedule: Q01DX009 (ip), vehicle: saline
# [7] = dose: 3.12 mg/kg/injection, schedule: Q01DX009 (ip), vehicle: saline with Tween-80
# [8] = dose: 6.25 mg/kg/injection, schedule: Q01DX009 (ip), vehicle: saline with Tween-80
compound,measurement,setting,value
CCCCNC(C)C1(O)Cc2c(O)c3c(c(O)c2C(OC2CC(N)C(O)C(C)O2)C1)C(=O)c1c(OC)cccc1C3=O (stereo unspecified),T/C,"dose: 5.0 mg/kg/injection, schedule: Q01DX009 (ip), vehicle: saline",120 % of control
same,T/C,[1],174 % of control and 193 % of control
same,T/C,[2],160 % of control and 222 % of control
same,T/C,"dose: 40.0 mg/kg/injection, schedule: Q01DX009 (ip), vehicle: saline",190 % of control and 333 % of control
same,T/C,"dose: 80.0 mg/kg/injection, schedule: Q01DX009 (ip), vehicle: saline",232 % of control and 333 % of control
COc1ccc2[nH]c3c(c2c1)CCNC3CC(C)CCC=C(C)C (stereo unspecified),T/C,"dose: 6.25 mg/kg/injection, schedule: Q01DX009 (ip), vehicle: Klucel (hydroxypropylcellulose) (HPC)",99 % of control
same,T/C,"dose: 12.5 mg/kg/injection, schedule: Q01DX009 (ip), vehicle: Klucel (hydroxypropylcellulose) (HPC)",88 % of control
same,T/C,[3],97 % of control
same,T/C,[4],102 % of control
same,T/C,[5],105 % of control
NC1(C(=O)O)CCCc2ccc(N(CCCl)CCCl)cc21 (stereo unspecified),T/C,"dose: 2.5 mg/kg/injection, schedule: Q01DX009 (ip), vehicle: saline",120 % of control
same,T/C,"dose: 10.0 mg/kg/injection, schedule: Q01DX009 (ip), vehicle: saline with Tween-80",121 % of control
same,T/C,[1],157 % of control
same,T/C,[2],189 % of control
COc1cc2c(cc1O)N=C[C@@H]1CCC(O)N1C2=O (mixture of isomers),T/C,[6],100 % of control
same,T/C,"dose: 1.0 mg/kg/injection, schedule: Q01DX009 (ip), vehicle: saline",100 % of control and 107 % of control
same,T/C,"dose: 2.0 mg/kg/injection, schedule: Q01DX009 (ip), vehicle: saline",111 % of control and 106 % of control
same,T/C,"dose: 4.0 mg/kg/injection, schedule: Q01DX009 (ip), vehicle: saline",110 % of control and 121 % of control
same,T/C,"dose: 8.0 mg/kg/injection, schedule: Q01DX009 (ip), vehicle: saline",115 % of control
O=C1CCCCC1C(=O)C(F)(F)F (stereo unspecified),T/C,"dose: 4.5 mg/kg/injection, schedule: Q01DX009 (ip), vehicle: saline + Tween-80 + alcohol",103 % of control
same,T/C,"dose: 9.0 mg/kg/injection, schedule: Q01DX009 (ip), vehicle: saline + Tween-80 + alcohol",93 % of control
same,T/C,"dose: 18.0 mg/kg/injection, schedule: Q01DX009 (ip), vehicle: saline + Tween-80 + alcohol",87 % of control
same,T/C,"dose: 50.0 mg/kg/injection, schedule: Q01DX009 (ip), vehicle: saline + Tween-80 + alcohol",102 % of control
ClC1C(Cl)C(Cl)C(Cl)C(Cl)C1Cl (stereo unspecified),T/C,[7],88 % of control and 90 % of control
same,T/C,[8],109 % of control and 91 % of control
same,T/C,"dose: 12.5 mg/kg/injection, schedule: Q01DX009 (ip), vehicle: saline with Tween-80",107 % of control
same,T/C,[3],100 % of control
same,T/C,"dose: 25.0 mg/kg/injection, schedule: Q01DX009 (ip), vehicle: saline with Tween-80",92 % of control and 97 % of control
same,T/C,[4],100 % of control
same,T/C,"dose: 50.0 mg/kg/injection, schedule: Q01DX009 (ip), vehicle: saline with Tween-80",93 % of control
same,T/C,[5],105 % of control
same,T/C,"dose: 200.0 mg/kg/injection, schedule: Q01DX009 (ip), vehicle: Klucel (hydroxypropylcellulose) (HPC)",111 % of control
same,T/C,"dose: 400.0 mg/kg/injection, schedule: Q01DX009 (ip), vehicle: Klucel (hydroxypropylcellulose) (HPC)",107 % of control
COC1C(CO)OC(n2c3c(Cl)cccc3c3c4c(c5c6cccc(Cl)c6[nH]c5c32)C(=O)NC4=O)C(O)C1O (stereo unspecified),T/C,"dose: 25.0 mg/kg/injection, schedule: Q01DX009 (ip), vehicle: distilled water + Tween-80",150 % of control
same,T/C,"dose: 100.0 mg/kg/injection, schedule: Q01DX009 (ip), vehicle: distilled water + Tween-80",172 % of control and 173 % of control
same,T/C,"dose: 200.0 mg/kg/injection, schedule: Q01DX009 (ip), vehicle: distilled water + Tween-80",161 % of control
O=C(NC(Cc1c[nH]c2ccccc12)C(=O)O)OCC1c2ccccc2-c2ccccc21 (stereo unspecified),T/C,[3],102 % of control
same,T/C,[4],92 % of control
same,T/C,[5],103 % of control
O=C(O)CNC(=O)C(Cc1ccccc1)NC(=O)OCc1ccccc1 (stereo unspecified) (HELM PEPTIDE1{[O=C(OCc1ccccc1)[*:2]].[O=C(C(Cc1ccccc1)N[*:1])[*:2]].G}$$$$V2.0),T/C,[3],94 % of control
same,T/C,[4],102 % of control
same,T/C,[5],86 % of control and 94 % of control
CC[C@]1(O)C[C@H]2CN(CCc3c([nH]c4ccccc34)[C@@](C(=O)OC)(c3cc4c(cc3OC)N(C)[C@H]3[C@@](O)(C(=O)OC)[C@H](OC(C)=O)[C@]5(CC)C=CCN6CC[C@]43[C@@H]65)C2)C1,T/C,"dose: 0.12 mg/kg/injection, schedule: Q01DX009 (ip), vehicle: saline",194 % of control
same,T/C,"dose: 0.12 mg/kg/injection, schedule: Q01DX009 (ip), vehicle: water",161 % of control
same,T/C,"dose: 0.25 mg/kg/injection, schedule: Q01DX009 (ip), vehicle: saline",234 % of control
same,T/C,"dose: 0.25 mg/kg/injection, schedule: Q01DX009 (ip), vehicle: water",171 % of control and 199 % of control and 221 % of control
same,T/C,[6],215 % of control
same,T/C,"dose: 0.5 mg/kg/injection, schedule: Q01DX009 (ip), vehicle: water",176 % of control and 212 % of control and 309 % of control
same,T/C,"dose: 15.62 micrograms/kg/injection, schedule: Q01DX009 (ip), vehicle: water",159 % of control
same,T/C,"dose: 31.25 micrograms/kg/injection, schedule: Q01DX009 (ip), vehicle: water",154 % of control
same,T/C,"dose: 62.5 micrograms/kg/injection, schedule: Q01DX009 (ip), vehicle: water",180 % of control
same,T/C,"dose: 125.0 micrograms/kg/injection, schedule: Q01DX009 (ip), vehicle: water",206 % of control
same,T/C,"dose: 250.0 micrograms/kg/injection, schedule: Q01DX009 (ip), vehicle: water",206 % of control
COc1ccc2c3c1OC1C(=O)CCC4C(C2)N(C)CCC314 (stereo unspecified),T/C,"dose: 31.0 mg/kg/injection, schedule: Q01DX009 (ip), vehicle: saline",99 % of control
CO[C@@]12[C@@H]3N[C@@H]3CN1C1=C(C(=O)C(N3CCCC3)=C(C)C1=O)[C@@H]2COC(N)=O,T/C,[7],327 % of control
same,T/C,[8],100 % of control
CN(C)CCC(O)c1c[nH]c2ccccc12 (stereo unspecified),T/C,"dose: 100.0 mg/kg/injection, schedule: Q01DX009 (ip), vehicle: saline with Tween-80",98 % of control
same,T/C,"dose: 200.0 mg/kg/injection, schedule: Q01DX009 (ip), vehicle: saline with Tween-80",94 % of control
same,T/C,"dose: 400.0 mg/kg/injection, schedule: Q01DX009 (ip), vehicle: saline with Tween-80",94 % of control
CC1OC(O[C@H]2C[C@](O)(C(C)O)Cc3c(O)c4c(c(O)c32)C(=O)c2c(O)cccc2C4=O)CC(NC=O)C1O (stereo partly specified),T/C,"dose: 0.62 mg/kg/injection, schedule: Q01DX001 (ip), vehicle: water",158 % of control
same,T/C,"dose: 1.25 mg/kg/injection, schedule: Q01DX001 (ip), vehicle: water",185 % of control
same,T/C,"dose: 2.5 mg/kg/injection, schedule: Q01DX001 (ip), vehicle: distilled water + Tween-80",288 % of control
same,T/C,"dose: 2.5 mg/kg/injection, schedule: Q01DX001 (ip), vehicle: water",257 % of control
same,T/C,"dose: 5.0 mg/kg/injection, schedule: Q01DX001 (ip), vehicle: water",170 % of control
O=C(O)C1CC(O)CN1 (stereo unspecified),T/C,"dose: 50.0 mg/kg/injection, schedule: Q01DX009 (ip), vehicle: saline",101 % of control
same,T/C,"dose: 100.0 mg/kg/injection, schedule: Q01DX009 (ip), vehicle: saline",101 % of control
same,T/C,"dose: 200.0 mg/kg/injection, schedule: Q01DX009 (ip), vehicle: saline",96 % of control
same,T/C,"dose: 400.0 mg/kg/injection, schedule: Q01DX009 (ip), vehicle: saline",106 % of control
same,T/C,"dose: 800.0 mg/kg/injection, schedule: Q01DX009 (ip), vehicle: saline",108 % of control
COC(=O)Nc1cn2ccc(C(Cl)=C(Cl)Cl)cc2n1,T/C,[4],111 % of control
same,T/C,[5],116 % of control
